Experimental data as given in US20240299385A1 (ReWind Therapeutics NV, priority 2021, published 2024).

Molecular target: T1, human GPR17 receptor (Homo sapiens, UniProt Q13304)
T1 construct: host or cells: HEK-293
Experiment: Calcium mobilization functional assay (Fluo-8, FLIPR TETRA) in HEK-293 hGPR17 (Gα-q assay)
Assay type: cell-based
Conditions: antagonism of MDL29,951 (~EC80) induced Ca2+ signal; cell line (HEK-293 hGPR17 or HEK-293 Suchi5 hGPR17) not given
How it was run: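 Fluo-8-loaded HEK-293 hGPR17 cells (60 min dye loading, room temperature) were preincubated with compound for twenty minutes, then challenged with agonist MDL29,951 at ~EC80, 500 nM. Intracellular calcium release via Gα-q was recorded as FLIPR fluorescence for a further 2 minutes; compounds tested in duplicate.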

T1 sequence (Q13304 whole entry): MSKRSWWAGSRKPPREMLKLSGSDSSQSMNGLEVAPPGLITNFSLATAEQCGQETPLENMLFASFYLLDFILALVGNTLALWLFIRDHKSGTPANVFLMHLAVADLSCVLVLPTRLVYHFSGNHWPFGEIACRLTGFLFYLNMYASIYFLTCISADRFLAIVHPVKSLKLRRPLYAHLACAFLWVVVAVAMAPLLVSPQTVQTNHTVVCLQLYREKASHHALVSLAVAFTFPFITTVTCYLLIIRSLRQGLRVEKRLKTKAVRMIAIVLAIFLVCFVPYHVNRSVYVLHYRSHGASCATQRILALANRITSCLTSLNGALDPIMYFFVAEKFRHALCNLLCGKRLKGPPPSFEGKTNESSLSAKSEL

IC50	SMILES
0.5 to 5 µM	Cc1cnc(NS(=O)(=O)c2c[nH]c(-c3ccccc3)c2)c(F)c1 [Cpd 136, N-(3-fluoro-5-methyl-2-pyridyl)-5-phenyl-1H-pyrrole-3-sulfonamide]
0.5 to 5 µM	O=S(=O)(Nc1cc(F)c(F)cc1F)c1c[nH]c(-c2ccccc2)c1 [Cpd 137, 5-phenyl-N-(2,4,5-trifluorophenyl)-1H-pyrrole-3-sulfonamide]
5 to 50 µM	O=S(=O)(Nc1ccc(C(F)(F)F)cn1)c1c[nH]c(-c2ccccc2)c1 [Cpd 138, 5-phenyl-N-[5-(trifluoromethyl)-2-pyridyl]-1H-pyrrole-3-sulfonamide]
0.5 to 5 µM	O=S(=O)(Nc1cc(C(F)(F)F)ccn1)c1c[nH]c(-c2ccccc2)c1 [Cpd 139, 5-phenyl-N-[4-(trifluoromethyl)-2-pyridyl]-1H-pyrrole-3-sulfonamide]
0.5 to 5 µM	O=S(=O)(Nc1ncc(C(F)(F)F)cc1F)c1c[nH]c(-c2ccccc2)c1 [Cpd 140, N-[3-fluoro-5-(trifluoromethyl)-2-pyridyl]-5-phenyl-1H-pyrrole-3-sulfonamide]
0.5 to 5 µM	O=S(=O)(Nc1cccc2c1OC(F)(F)O2)c1c[nH]c(-c2ccccc2)c1 [Cpd 141, N-(2,2-difluoro-1,3-benzodioxol-4-yl)-5-phenyl-1H-pyrrole-3-sulfonamide]
0.5 to 5 µM	O=S(=O)(Nc1cnc(Cl)cc1F)c1c[nH]c(-c2ccccc2F)c1 [Cpd 142, N-(6-chloro-4-fluoro-3-pyridyl)-5-(2-fluorophenyl)-1H-pyrrole-3-sulfonamide]
0.5 to 5 µM	O=S(=O)(Nc1ccc(OC(F)(F)F)cc1F)c1c[nH]c(-c2ccccc2)c1 [Cpd 143, N-[2-fluoro-4-(trifluoromethoxy)phenyl]-5-phenyl-1H-pyrrole-3-sulfonamide]
5 to 50 µM	COc1cc(C(F)(F)F)ccc1NS(=O)(=O)c1c[nH]c(-c2ccccc2)c1 [Cpd 144, N-[2-methoxy-4-(trifluoromethyl)phenyl]-5-phenyl-1H-pyrrole-3-sulfonamide]
0.5 to 5 µM	O=S(=O)(Nc1cc(F)c(Cl)cc1F)c1c[nH]c(-c2ccccc2)c1 [Cpd 145, N-(4-chloro-2,5-difluoro-phenyl)-5-phenyl-1H-pyrrole-3-sulfonamide]
5 to 50 µM	O=S(=O)(Nc1cc(Cl)ncc1F)c1c[nH]c(-c2ccccc2)c1 [Cpd 146, N-(2-chloro-5-fluoro-4-pyridyl)-5-phenyl-1H-pyrrole-3-sulfonamide]
0.5 to 5 µM	COc1nc(C(F)(F)F)ccc1NS(=O)(=O)c1c[nH]c(-c2ccccc2)c1 [Cpd 147, N-[2-methoxy-6-(trifluoromethyl)-3-pyridyl]-5-phenyl-1H-pyrrole-3-sulfonamide]
< 0.5 µM	O=S(=O)(Nc1cc(F)c(C(F)(F)F)cc1F)c1c[nH]c(-c2ncccc2F)c1 [Cpd 148, N-(2,5-difluoro-4-(trifluoromethyl)phenyl)-5-(3-fluoropyridin-2-yl)-1H-pyrrole-3-sulfonamide]
0.5 to 5 µM	O=S(=O)(Nc1cccc2c1OCO2)c1c[nH]c(-c2ccccn2)c1 [Cpd 149, N-(1,3-benzodioxol-4-yl)-5-(2-pyridyl)-1H-pyrrole-3-sulfonamide]
0.5 to 5 µM	O=S(=O)(Nc1cc(F)c(C(F)(F)F)cc1F)c1c[nH]c(-c2ncccn2)c1 [Cpd 150, N-[2,5-difluoro-4-(trifluoromethyl)phenyl]-5-pyrimidin-2-yl-1H-pyrrole-3-sulfonamide]
5 to 50 µM	O=S(=O)(Nc1ccc(F)cc1F)c1c[nH]cc1Cc1ccccc1 [Cpd 151, 4-benzyl-N-(2,4-difluorophenyl)-1H-pyrrole-3-sulfonamide]
5 to 50 µM	O=S(=O)(Nc1ccc(C(F)(F)F)nc1)c1c[nH]cc1Cc1ccccc1 [Cpd 152, 4-benzyl-N-[6-(trifluoromethyl)-3-pyridyl]-1H-pyrrole-3-sulfonamide]
5 to 50 µM	O=S(=O)(Nc1ccc(Cl)cc1F)c1c[nH]cc1Cc1ccccc1 [Cpd 153, 4-benzyl-N-(4-chloro-2-fluoro-phenyl)-1H-pyrrole-3-sulfonamide]
0.5 to 5 µM	COc1cc(C(F)(F)F)ccc1NS(=O)(=O)c1c[nH]c(-c2ccccn2)c1 [Cpd 154, N-[2-methoxy-4-(trifluoromethyl)phenyl]-5-(2-pyridyl)-1H-pyrrole-3-sulfonamide]
< 0.5 µM	Cc1cccnc1-c1cc(S(=O)(=O)Nc2cc(F)c(C(F)(F)F)cc2F)c[nH]1 [Cpd 155, N-[2,5-difluoro-4-(trifluoromethyl)phenyl]-5-(3-methyl-2-pyridyl)-1H-pyrrole-3-sulfonamide]
0.5 to 5 µM	Cn1ccnc1-c1cc(S(=O)(=O)Nc2cc(F)c(C(F)(F)F)cc2F)c[nH]1 [Cpd 156, N-[2,5-difluoro-4-(trifluoromethyl)phenyl]-5-(1-methylimidazol-2-yl)-1H-pyrrole-3-sulfonamide]
0.5 to 5 µM	O=S(=O)(Nc1ccc(OC(F)(F)F)cc1F)c1c[nH]c(-c2ccccn2)c1 [Cpd 157, N-[2-fluoro-4-(trifluoromethoxy)phenyl]-5-(2-pyridyl)-1H-pyrrole-3-sulfonamide]

IC50	SMILES
0.5 to 5 µM	O=S(=O)(Nc1cc(F)c(C(F)(F)F)cc1F)c1c[nH]cc1Cc1ccccc1 [Cpd 158, 4-benzyl-N-[2,5-difluoro-4-(trifluoromethyl)phenyl]-1H-pyrrole-3-sulfonamide]
5 to 50 µM	O=S(=O)(Nc1ccc(F)cc1F)c1c[nH]c(-c2ncccc2F)c1 [Cpd 160, N-(2,4-difluorophenyl)-5-(3-fluoro-2-pyridyl)-1H-pyrrole-3-sulfonamide]
5 to 50 µM	COc1cc(C#N)ccc1NS(=O)(=O)c1c[nH]cc1Cc1ccccc1 [Cpd 161, 4-benzyl-N-(4-cyano-2-methoxy-phenyl)-1H-pyrrole-3-sulfonamide]
0.5 to 5 µM	N#Cc1ccc(NS(=O)(=O)c2c[nH]cc2Cc2ccccc2)cc1 [Cpd 162, 4-benzyl-N-(4-cyanophenyl)-1H-pyrrole-3-sulfonamide]
5 to 50 µM	O=S(=O)(Nc1ccccc1F)c1c[nH]cc1Cc1ccccc1 [Cpd 163, 4-benzyl-N-(2-fluorophenyl)-1H-pyrrole-3-sulfonamide]
0.5 to 5 µM	O=S(=O)(Nc1ncc(Cl)cc1F)c1c[nH]c(-c2ccccn2)c1 [Cpd 164, N-(5-chloro-3-fluoro-2-pyridyl)-5-(2-pyridyl)-1H-pyrrole-3-sulfonamide]
0.5 to 5 µM	COc1cc(CC#N)ccc1NS(=O)(=O)c1c[nH]c(-c2ccccc2)c1 [Cpd 165, N-[4-(cyanomethyl)-2-methoxy-phenyl]-5-phenyl-1H-pyrrole-3-sulfonamide]
0.5 to 5 µM	N#Cc1cnc(NS(=O)(=O)c2c[nH]c(-c3ccccc3)c2)c(F)c1 [Cpd 166, N-(5-cyano-3-fluoro-2-pyridyl)-5-phenyl-1H-pyrrole-3-sulfonamide]
0.5 to 5 µM	COc1cc(Br)cnc1NS(=O)(=O)c1c[nH]c(-c2ccccn2)c1 [Cpd 167, N-(5-bromo-3-methoxy-2-pyridyl)-5-(2-pyridyl)-1H-pyrrole-3-sulfonamide]
0.5 to 5 µM	O=S(=O)(Nc1ncc(Br)cc1F)c1c[nH]c(-c2ccccc2)c1 [Cpd 168, N-(5-bromo-3-fluoro-2-pyridyl)-5-phenyl-1H-pyrrole-3-sulfonamide]
5 to 50 µM	N#CCc1cnc(NS(=O)(=O)c2c[nH]c(-c3ccccc3)c2)c(F)c1 [Cpd 169, N-[5-(cyanomethyl)-3-fluoro-2-pyridyl]-5-phenyl-1H-pyrrole-3-sulfonamide]
0.5 to 5 µM	COc1cccnc1-c1cc(S(=O)(=O)Nc2cc(F)c(C(F)(F)F)cc2F)c[nH]1 [Cpd 170, N-[2,5-difluoro-4-(trifluoromethyl)phenyl]-5-(3-methoxy-2-pyridyl)-1H-pyrrole-3-sulfonamide]
< 0.5 µM	N#Cc1ccc(NS(=O)(=O)c2c[nH]cc2Cc2cccc(F)c2)c(F)c1 [Cpd 171, N-(4-cyano-2-fluoro-phenyl)-4-[(3-fluorophenyl)methyl]-1H-pyrrole-3-sulfonamide]
< 0.5 µM	Cc1cc(F)c(NS(=O)(=O)c2c[nH]c(-c3ccccn3)c2)cc1F [Cpd 173, N-(2,5-difluoro-4-methyl-phenyl)-5-(2-pyridyl)-1H-pyrrole-3-sulfonamide]
5 to 50 µM	O=S(=O)(Nc1cc(F)c(-c2ccccc2)cc1F)c1c[nH]c(-c2ccccn2)c1 [Cpd 174, N-(2,5-difluoro-4-phenyl-phenyl)-5-(2-pyridyl)-1H-pyrrole-3-sulfonamide]
0.5 to 5 µM	COc1cc(C(F)(F)F)cnc1NS(=O)(=O)c1c[nH]c(-c2ccccc2)c1 [Cpd 175, N-[3-methoxy-5-(trifluoromethyl)-2-pyridyl]-5-phenyl-1H-pyrrole-3-sulfonamide]
0.5 to 5 µM	O=S(=O)(Nc1ncc(C(F)(F)F)cc1F)c1c[nH]c(-c2ccccc2F)c1 [Cpd 176, 5-(2-fluorophenyl)-N-[3-fluoro-5-(trifluoromethyl)-2-pyridyl]-1H-pyrrole-3-sulfonamide]
< 0.5 µM	N#Cc1ccc(NS(=O)(=O)c2c[nH]cc2Cc2ccc(F)cc2)c(F)c1 [Cpd 177, N-(4-cyano-2-fluoro-phenyl)-4-[(4-fluorophenyl)methyl]-1H-pyrrole-3-sulfonamide]
0.5 to 5 µM	O=S(=O)(Nc1cc(F)c(F)cc1F)c1c[nH]c(-c2ccccn2)c1 [Cpd 179, 5-(2-pyridyl)-N-(2,4,5-trifluorophenyl)-1H-pyrrole-3-sulfonamide]
0.5 to 5 µM	COc1cccc(F)c1-c1cc(S(=O)(=O)Nc2cc(F)c(C(F)(F)F)cc2F)c[nH]1 [Cpd 180, N-[2,5-difluoro-4-(trifluoromethyl)phenyl]-5-(2-fluoro-6-methoxy-phenyl)-1H-pyrrole-3-sulfonamide]
0.5 to 5 µM	O=S(=O)(Nc1ccc(Cl)cc1F)c1c[nH]c(-c2ccccn2)c1 [Cpd 181, N-(4-chloro-2-fluoro-phenyl)-5-(2-pyridyl)-1H-pyrrole-3-sulfonamide]
0.5 to 5 µM	N#Cc1ccc(NS(=O)(=O)c2c[nH]cc2Cc2ccccc2F)c(F)c1 [Cpd 182, N-(4-cyano-2-fluoro-phenyl)-4-[(2-fluorophenyl)methyl]-1H-pyrrole-3-sulfonamide]
